Columns and labels:
ChaO YT02 = assay: Enzymatic N-dealkylation assay MAOs/CAOs, HPLC product release; type: biochemical, Acinetobacter sp. YT-02; settings: for enzymatischer Abbau von Modell-N-Alkylverbindungen: ChaO YT02: 10 mM substrate, phosphate buffer pH 7,5, 37 °C, at least 48 h
Procedure: (§1) Die Expression der in Tabelle 1 gezeigten MAOs und CAOs erfolgte im Stamm E. coli BL21(DE3). Der Zellaufschluss erfolgte durch Ultraschallbehandlung und die Enzymreinigung über einen N-terminalen His-tag und das IMAC-System (Nickel-NTA) nach Angaben des Herstellers (Fisher Scientific GmbH) mit anschließender Umpufferung in einen Lagerpuffer (25 mM Tris/HCl pH 7.8, 1 mM dithiothreitol (DTT), 1 mM PMSF, 300 mM NaCl) über PD-10-Säulen nach Angaben des Herstellers (cytiva). Die erfolgreiche Expression und Aufreinigung wurde über ein SDS-PAGE kontrolliert. Tabelle 1: Untersuchte Enzyme im Rahmen der enzymatischen N-Dealkylierung.
(§2) Für MAOs/CAOs erfolgte die Reaktion im 200 µL Maßstab bei 37 °C für mindestens 48 h und 200 rpm. Dazu wurden 100 µL der oben beschriebenen Enzympräparate in Phosphatpuffer (bevorzugt zwischen 50 bis 200 mM, pH 7,5) mit 10 mM eines der sechs in Tabelle 2 gelisteten Substrate versetzt. Als Co-Solvenz für das Substrat wurde Dimethylsulfoxid eingesetzt (maximal 5 % (w/w) der finalen Umsetzungsreaktion). Um eine ausreichende Sauerstoffversorgung über den Kopfraum des Reaktionsansatzes zu gewährleisten, wurden Reaktionsgefäße oder Mikrotiterplatten in eckiger Ausführungsform und 10-fachem Gesamtvolumen bevorzugt.
(§3) Als Negativkontrollen wurden für alle Substrate und Bedingungen Assays ohne Enzymlösung durchgeführt. Alle Assays erfolgten mindestens in Triplikaten.
(§4) Zum Abstoppen der enzymatischen Reaktion und Extraktion erfolgte die Verdünnung des Reaktionsansatzes in gleichen Teilen Acetonitril. Die Proben wurden filtriert und die Produktfreisetzung per HPLC analysiert (ZORBAX Eclipse C18 Säule (Partikelgröße von […], 4,6 × 75 mm (Agilent Technologies, Santa Clara, USA), 40 °C, Laufmittel A: Acetonitril mit 5 % Reinstwasser, Laufmittel B: 10 mM Natriumphosphat-Puffer pH 7,0 mit 5 % ACN, Fluss: 1 mL/min). Das Profil der HPLC-Methode ist in Tabelle 3 gezeigt. Tabelle 4 zeigt die Elutionszeiten der Komponenten mit dieser Messmethode. Tabelle 3: Profil der HPLC-Methode.

UPO #13 = assay: Enzymatic N-dealkylation assay UPOs with H2O2, HPLC; type: biochemical; settings: for enzymatischer Abbau von Modell-N-Alkylverbindungen: UPO #13: 4 mM substrate, Tricine buffer 100 mM, 30 °C, at least 4 h, H2O2 added every 30 min
Procedure: (§5) Die vier Enzyme UPO #13, UPO #13M1, UPO #13M3 und UPO #13M5 wurden von Aminoverse B.V. bereitgestellt. Zusätzlich wurde das Wildtyp AaeUPO aus der Basidiomycete Agrocybe aegerita (Ullrich, R., et al. (2004). "Novel haloperoxidase from the agaric basidiomycete Agrocybe aegerita oxidizes aryl alcohols and aldehydes." Appl Environ Microbiol 70(8): 4575-4581) von Aminoverse B.V. erworben.
(§6) Für UPOs erfolgte die Reaktion im 300 µL Maßstab in Tricine Puffer (100 mM) bei 30 °C für mindestens 4 h und 200 rpm. Dazu wurden die von Aminoverse B.V. bereitgestellten Enzympräparate in dH2O gelöst (ca. 0,575 mg/mL) und 30 µL der Enzymlösung in den Assay eingesetzt, welcher mit 4 mM eines der sechs in Tabelle 2 gelisteten Substrate versetzt war. Der Assay wurde mit Zugabe des Co-Substrats H2O2 (1,5 µL einer 200 mM H2O2-Lösung) gestartet, welches alle 30 min wiederholt zugegeben wurde (final 12 µL H2O2).
as §3, §4

UPO #13M3 = assay: as above; type: biochemical; settings: for enzymatischer Abbau von Modell-N-Alkylverbindungen: UPO #13M3: 4 mM substrate, Tricine buffer 100 mM, 30 °C, at least 4 h, H2O2 added every 30 min
Procedure: as §5, §6, §3, §4

UPO #13M1 = assay: as above; type: biochemical; settings: for enzymatischer Abbau von Modell-N-Alkylverbindungen: UPO #13M1: 4 mM substrate, Tricine buffer 100 mM, 30 °C, at least 4 h, H2O2 added every 30 min
Procedure: as §5, §6, §3, §4

UPO #13M5 = assay: as above; type: biochemical; settings: for enzymatischer Abbau von Modell-N-Alkylverbindungen: UPO #13M5: 4 mM substrate, Tricine buffer 100 mM, 30 °C, at least 4 h, H2O2 added every 30 min
Procedure: as §5, §6, §3, §4

MaoN = target: T1, MaoN (Aspergillus niger, UniProt P46882); assay: Enzymatic N-dealkylation assay MAOs/CAOs, HPLC product release; type: biochemical; settings: 10 mM substrate, phosphate buffer pH 7,5, 37 °C, at least 48 h
T1 construct: His-tag (N); made in house; host or cells: Escherichia coli BL21(DE3) pET21a
T1 sequence (P46882 whole entry): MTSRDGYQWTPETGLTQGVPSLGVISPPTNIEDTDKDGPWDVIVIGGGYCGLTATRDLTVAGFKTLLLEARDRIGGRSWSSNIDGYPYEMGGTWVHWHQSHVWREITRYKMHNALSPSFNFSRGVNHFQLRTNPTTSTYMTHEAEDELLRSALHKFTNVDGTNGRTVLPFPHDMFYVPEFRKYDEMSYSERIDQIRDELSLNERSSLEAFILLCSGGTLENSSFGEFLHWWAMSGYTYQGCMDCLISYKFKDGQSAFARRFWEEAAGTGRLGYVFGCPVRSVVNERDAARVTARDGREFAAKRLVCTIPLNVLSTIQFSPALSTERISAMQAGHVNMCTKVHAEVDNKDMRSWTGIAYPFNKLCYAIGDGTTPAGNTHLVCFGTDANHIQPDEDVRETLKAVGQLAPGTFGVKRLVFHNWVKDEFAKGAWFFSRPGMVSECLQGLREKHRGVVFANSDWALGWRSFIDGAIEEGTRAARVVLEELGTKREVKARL
Procedure: as §1, §2, §3, §4

MaoN5 = target: T2, MaoN5 (Aspergillus niger, UniProt P46882, D385S/I246M/N336S/T384N); assay: as above; type: biochemical; settings: for enzymatischer Abbau von Modell-N-Alkylverbindungen: MaoN5: 10 mM substrate, phosphate buffer pH 7,5, 37 °C, at least 48 h; for Aktivität / Freisetzung des Zielprodukts: MaoN5
T2 construct: His-tag (N); made in house; host or cells: Escherichia coli BL21(DE3) pET21a
T2 sequence (P46882 whole entry I246M/N336S/T384N/D385S): as the sequence (P46882 whole entry) above, with I246M, N336S, T384N, D385S counted along it
Procedure: as §1, §2, §3, §4

AaeUPO = target: T3, AaeUPO (Cyclocybe aegerita, UniProt B9W4V6); assay: Enzymatic N-dealkylation assay UPOs with H2O2, HPLC; type: biochemical, Agrocybe aegerita; settings: for enzymatischer Abbau von Modell-N-Alkylverbindungen: AaeUPO: 4 mM substrate, Tricine buffer 100 mM, 30 °C, at least 4 h, H2O2 added every 30 min
T3 construct: purchased Aminoverse B.V
T3 sequence (B9W4V6 44-371): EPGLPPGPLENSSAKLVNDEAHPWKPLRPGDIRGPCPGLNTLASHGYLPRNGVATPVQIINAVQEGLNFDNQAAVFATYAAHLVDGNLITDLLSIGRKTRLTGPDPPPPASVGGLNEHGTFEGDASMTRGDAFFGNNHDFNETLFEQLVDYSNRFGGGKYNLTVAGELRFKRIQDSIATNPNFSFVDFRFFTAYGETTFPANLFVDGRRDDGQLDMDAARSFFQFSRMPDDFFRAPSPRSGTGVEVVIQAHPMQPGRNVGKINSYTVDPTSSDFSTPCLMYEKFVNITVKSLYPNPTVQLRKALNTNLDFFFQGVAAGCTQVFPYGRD
Procedure: Die vier Enzyme UPO #13, UPO #13M1, UPO #13M3 und UPO #13M5 wurden von Aminoverse B.V. bereitgestellt.
Für UPOs erfolgte die Reaktion im 300 µL Maßstab in Tricine Puffer (100 mM) bei 30 °C für mindestens 4 h und 200 rpm. […] Der Assay wurde mit Zugabe des Co-Substrats H2O2 (1,5 µL einer 200 mM H2O2-Lösung) gestartet, welches alle 30 min wiederholt zugegeben wurde (final 12 µL H2O2).
as §3, §4

ChaoA L225A = assay: Enzymatic N-dealkylation assay MAOs/CAOs, HPLC product release; type: biochemical, Brevibacterium oxydans strain IH-35A; settings: for enzymatischer Abbau von Modell-N-Alkylverbindungen: ChaoA L225A: 10 mM substrate, phosphate buffer pH 7,5, 37 °C, at least 48 h; for Aktivität / Freisetzung des Zielprodukts: ChaoA L225A
Procedure: as §1, §2, §3, §4

MAOs/CAOs = assay: Enzymatic N-dealkylation assay, statement for the MAOs/CAOs as a group; type: biochemical
Procedure: as §1, §2, §3, §4

[1] = UPO #13, mol% relative to substrate used
[2] = UPO #13M3, mol% relative to substrate used
[3] = UPO #13M1, mol% relative to substrate used
[4] = UPO #13M5, mol% relative to substrate used
[5] = AaeUPO, mol% relative to substrate used

Compound: CCNc1ccc(Cc2ccc(NCC)cc2)cc1 [N,N'-Diethyl-4,4'-MDA]
- enzymatischer Abbau von Modell-N-Alkylverbindungen: ChaO YT02 (ChaO YT02): nein
- enzymatischer Abbau von Modell-N-Alkylverbindungen: UPO #13 (UPO #13): ja/deg^1
- 4,4'-MDA-Freisetzung (UPO #13; [1]): 2,6 mol%
- enzymatischer Abbau von Modell-N-Alkylverbindungen: UPO #13M3 (UPO #13M3): ja/deg^1
- 4,4'-MDA-Freisetzung (UPO #13M3; [2]): 2,9 mol%
- enzymatischer Abbau von Modell-N-Alkylverbindungen: UPO #13M1 (UPO #13M1): ja/deg^1
- 4,4'-MDA-Freisetzung (UPO #13M1; [3]): 2,5 mol%
- enzymatischer Abbau von Modell-N-Alkylverbindungen: UPO #13M5 (UPO #13M5): ja/deg^1
- 4,4'-MDA-Freisetzung (UPO #13M5; [4]): 2,8 mol%
- enzymatischer Abbau von Modell-N-Alkylverbindungen: MaoN (MaoN): nein
- enzymatischer Abbau von Modell-N-Alkylverbindungen: MaoN5 (MaoN5): schwach
- Aktivität / Freisetzung des Zielprodukts (MaoN5): nur sehr schwache 4,4'-MDA-Freisetzung
- enzymatischer Abbau von Modell-N-Alkylverbindungen: AaeUPO (AaeUPO): nein
- 4,4'-MDA-Freisetzung (AaeUPO; [5]): 0 mol%
- enzymatischer Abbau von Modell-N-Alkylverbindungen: ChaoA L225A (ChaoA L225A): schwach
- Aktivität / Freisetzung des Zielprodukts (ChaoA L225A): nur sehr schwache 4,4'-MDA-Freisetzung

Compound: CCNc1ccccc1 [N-Ethylanilin]
- enzymatischer Abbau von Modell-N-Alkylverbindungen: ChaO YT02 (ChaO YT02): schwach
- enzymatischer Abbau von Modell-N-Alkylverbindungen: UPO #13 (UPO #13): deg
- enzymatischer Abbau von Modell-N-Alkylverbindungen: UPO #13M3 (UPO #13M3): deg
- enzymatischer Abbau von Modell-N-Alkylverbindungen: UPO #13M1 (UPO #13M1): deg
- enzymatischer Abbau von Modell-N-Alkylverbindungen: UPO #13M5 (UPO #13M5): deg
- enzymatischer Abbau von Modell-N-Alkylverbindungen: MaoN5 (MaoN5): schwach
- enzymatischer Abbau von Modell-N-Alkylverbindungen: AaeUPO (AaeUPO): deg
- Aktivität (MAOs/CAOs): spezifische Aktivität

Compound: CCN(C)c1ccccc1 [N-Ethyl-N-Methylanilin]
- enzymatischer Abbau von Modell-N-Alkylverbindungen: ChaO YT02 (ChaO YT02): nein
- Anilin als Zielprodukt (UPO #13; UPO #13): nachgewiesen
- Anilin als Zielprodukt (UPO #13M3; UPO #13M3): nachgewiesen
- Anilin als Zielprodukt (UPO #13M1; UPO #13M1): nachgewiesen
- enzymatischer Abbau von Modell-N-Alkylverbindungen: UPO #13M5 (UPO #13M5): nein
- enzymatischer Abbau von Modell-N-Alkylverbindungen: MaoN (MaoN): nein
- enzymatischer Abbau von Modell-N-Alkylverbindungen: MaoN5 (MaoN5): nein
- enzymatischer Abbau von Modell-N-Alkylverbindungen: AaeUPO (AaeUPO): nein
- enzymatischer Abbau von Modell-N-Alkylverbindungen: ChaoA L225A (ChaoA L225A): nein
- Aktivität (MAOs/CAOs): keine Aktivität

Compound: c1ccc(CNc2ccccc2)cc1 [N-Benzylanilin]
- enzymatischer Abbau von Modell-N-Alkylverbindungen: ChaO YT02 (ChaO YT02): schwach
- Aktivität / Freisetzung des Zielprodukts (ChaO YT02; ChaO YT02): spezifische Aktivität
- enzymatischer Abbau von Modell-N-Alkylverbindungen: UPO #13 (UPO #13): deg
- enzymatischer Abbau von Modell-N-Alkylverbindungen: UPO #13M3 (UPO #13M3): deg
- enzymatischer Abbau von Modell-N-Alkylverbindungen: UPO #13M1 (UPO #13M1): deg
- enzymatischer Abbau von Modell-N-Alkylverbindungen: UPO #13M5 (UPO #13M5): deg
- enzymatischer Abbau von Modell-N-Alkylverbindungen: MaoN (MaoN): nein
- enzymatischer Abbau von Modell-N-Alkylverbindungen: MaoN5 (MaoN5): nein
- enzymatischer Abbau von Modell-N-Alkylverbindungen: AaeUPO (AaeUPO): deg
- enzymatischer Abbau von Modell-N-Alkylverbindungen: ChaoA L225A (ChaoA L225A): schwach
- Aktivität / Freisetzung des Zielprodukts (ChaoA L225A): spezifische Aktivität

Compound: CN(C)c1ccc(Cc2ccc(N(C)C)cc2)cc1 [N,N,N',N'-Tetramethyl-4,4'-MDA, N,N,N',N'-Tetramethyl-4,4'-diaminodiphenylmethan]
- enzymatischer Abbau von Modell-N-Alkylverbindungen: ChaO YT02 (ChaO YT02): nein
- 4,4'-MDA-Freisetzung (UPO #13; [1]): 1,1 mol%
- N,N'-Dimethyl-4,4'-MDA - Zwischenprodukt der enzymatischen Reaktion - nachgewiesen (UPO #13; [1]): 25,7 mol%
- 4,4'-MDA-Freisetzung (UPO #13M3; [2]): 1,4 mol%
- N,N'-Dimethyl-4,4'-MDA - Zwischenprodukt der enzymatischen Reaktion - nachgewiesen (UPO #13M3; [2]): 27,5 mol%
- 4,4'-MDA-Freisetzung (UPO #13M1; [3]): 1,1 mol%
- N,N'-Dimethyl-4,4'-MDA - Zwischenprodukt der enzymatischen Reaktion - nachgewiesen (UPO #13M1; [3]): 31,8 mol%
- 4,4'-MDA-Freisetzung (UPO #13M5; [4]): 1,3 mol%
- N,N'-Dimethyl-4,4'-MDA - Zwischenprodukt der enzymatischen Reaktion - nachgewiesen (UPO #13M5; [4]): 27,9 mol%
- enzymatischer Abbau von Modell-N-Alkylverbindungen: MaoN (MaoN): nein
- enzymatischer Abbau von Modell-N-Alkylverbindungen: MaoN5 (MaoN5): nein
- enzymatischer Abbau von Modell-N-Alkylverbindungen: AaeUPO (AaeUPO): nein
- 4,4'-MDA-Freisetzung (AaeUPO; [5]): 0,1 mol%
- N,N'-Dimethyl-4,4'-MDA - Zwischenprodukt der enzymatischen Reaktion - nachgewiesen (AaeUPO; [5]): 0 mol%
- enzymatischer Abbau von Modell-N-Alkylverbindungen: ChaoA L225A (ChaoA L225A): nein
- Aktivität (MAOs/CAOs): keine reproduzierbare Aktivität

Compound: CNc1ccc(Cc2ccc(NC)cc2)cc1 [N,N'-Dimethyl-4,4'-MDA]
- enzymatischer Abbau von Modell-N-Alkylverbindungen: ChaO YT02 (ChaO YT02): nein
- 4,4'-MDA-Freisetzung (UPO #13; [1]): 2,1 mol%
- Abbau des eingesetzten Substrates (UPO #13; UPO #13, substrate no longer detected in HPLC chromatograms): vollständig abgebaut
- 4,4'-MDA-Freisetzung (UPO #13M3; [2]): 2,8 mol%
- Abbau des eingesetzten Substrates (UPO #13M3; UPO #13M3, substrate no longer detected in HPLC chromatograms): vollständig abgebaut
- 4,4'-MDA-Freisetzung (UPO #13M1; [3]): 2,5 mol%
- 4,4'-MDA-Freisetzung (UPO #13M5; [4]): 2,2 mol%
- Abbau des eingesetzten Substrates (UPO #13M5; UPO #13M5, substrate no longer detected in HPLC chromatograms): vollständig abgebaut
- enzymatischer Abbau von Modell-N-Alkylverbindungen: MaoN (MaoN): nein
- enzymatischer Abbau von Modell-N-Alkylverbindungen: MaoN5 (MaoN5): schwach
- Aktivität / Freisetzung des Zielprodukts (MaoN5): geringerer Aktivität
- 4,4'-MDA-Freisetzung (AaeUPO; [5]): 0,7 mol%
- enzymatischer Abbau von Modell-N-Alkylverbindungen: ChaoA L225A (ChaoA L225A): schwach
- Aktivität / Freisetzung des Zielprodukts (ChaoA L225A): geringerer Aktivität

Source: patent publication EP4600367A1, “ENZYMATIC CLEAVAGE OF N-ALKYL COMPOUNDS AFTER CHEMOLYSIS OF POLYURETHANES” (Covestro Deutschland AG, priority 2024, dated 2025)
